Results published in the supplement of paper PMC10627819.

Experiments:
B. subtilis 168 [1] = test: fitness (endpoint OD595 vs no drug) (fraction); higher = more growth
Summary of the method: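 Volumes were 30 µl per well, or 55 µl for S. pneumoniae, in 384-well plates inoculated at OD595 0.01. Media were TSB, LB Lennox or CY at 37 °C, and OD595 was read every 30 min for 14 h with first-reading background subtraction. Fitness is the ratio of optical density at stationary-phase entry to the robust mean of no-drug controls. That ratio is capped at 1.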

B. subtilis 168 [2] = test: Bliss interaction score (quartile over a dose matrix) (fitness difference); higher = more antagonism (negative = synergy)
Summary of the method: (§1)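 The Bliss score is observed minus expected fitness, where expected fitness is the product of the single-drug fitness values inferred from the combination data. Fitness is the OD595 at the onset of stationary phase over the plate's robust no-drug mean, capped at 1. Scores are summarised by quartiles over technical, biological and donor/recipient replicates.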

S. pneumoniae D39V = test: as above
Summary of the method: as §1

S. aureus DSM 20231 = test: as above
Summary of the method: as §1

S. aureus Newman = test: as above
Summary of the method: as §1
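Wherever Bliss interaction score (quartile over a dose matrix) is given: first quartile when negative (synergy) and third quartile when positive (antagonism).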

CN[C@@H]1[C@H](O[C@H]2[C@H](O[C@H]3[C@H](O)[C@@H](O)[C@H](N=C(N)N)[C@@H](O)[C@@H]3N=C(N)N)O[C@@H](C)[C@]2(O)C=O)O[C@@H](CO)[C@H](O)[C@H]1O [Streptomycin] + COc1cc(Cc2cnc(N)nc2N)cc(OC)c1OC [Trimethoprim]
fitness, B. subtilis 168 [1], one replicate
Conditions | partner 0.1 µg/mL | partner 0.125 µg/mL | partner 0.2 µg/mL | partner 0.4 µg/mL
first compound 2 µg/mL | 0.713 | 0.605 | 0.493 | 0.253
first compound 4 µg/mL | 0.0534 | 0.0554 | 0.0535 | 0.0313
first compound 8 µg/mL | 0.0279 | 0.0253 | 0.0392 | 0.025

fitness, B. subtilis 168 [1]
Conditions | partner 0.25 µg/mL | partner 0.5 µg/mL | partner 1 µg/mL | partner 2 µg/mL
first compound 2 µg/mL | 0.416 | 0.103 | 0.0483 | 0.0464
first compound 4 µg/mL | 0.0303 | 0.0474 | 0.0558 | 0.0621
first compound 8 µg/mL | 0.0127 | 0.0322 | 0.0309 | 0.0326

Conditions | Bliss interaction score
B. subtilis 168 [2] | -0.252
S. aureus DSM 20231 | -0.0639
S. aureus Newman | 0.0902
S. pneumoniae D39V | -0.175

CO[C@@H]1[C@@H](OC(N)=O)[C@@H](O)[C@H](Oc2ccc3c(O)c(NC(=O)c4ccc(O)c(CC=C(C)C)c4)c(=O)oc3c2C)OC1(C)C [Novobiocin] + Cc1cc(NS(=O)(=O)c2ccc(N)cc2)no1 [Sulfamethoxazol]
fitness, B. subtilis 168 [1]
Conditions | first compound 0.0125 µg/mL | first compound 0.025 µg/mL | first compound 0.05 µg/mL
partner 1 µg/mL | 0.932 | 0.959 | 0.951
partner 2 µg/mL | 0.968 | 0.955 | 0.876
partner 4 µg/mL | 0.966 | 0.989 | 0.92

fitness, B. subtilis 168 [1], one replicate
Conditions | first compound 0.05 µg/mL | first compound 0.1 µg/mL | first compound 0.125 µg/mL | first compound 0.2 µg/mL | first compound 0.25 µg/mL | first compound 0.5 µg/mL
partner 0.5 µg/mL | 0.972 | ≥ 1 | – | ≥ 1 | – | –
partner 1 µg/mL | – | 0.864 | 0.999 | 0.81 | 0.897 | 0.49
partner 2 µg/mL | – | 0.814 | 0.927 | 0.885 | 0.838 | 0.507
partner 4 µg/mL | – | – | ≥ 1 | – | 0.909 | 0.482

Conditions | Bliss interaction score
B. subtilis 168 [2] | 0.0447
S. aureus DSM 20231 | 0.0483
S. aureus Newman | 0.041
S. pneumoniae D39V | -0.0959

CO[C@@H]1[C@@H](OC(N)=O)[C@@H](O)[C@H](Oc2ccc3c(O)c(NC(=O)c4ccc(O)c(CC=C(C)C)c4)c(=O)oc3c2C)OC1(C)C [Novobiocin] + CCN(CC)CCOC(=O)c1ccc(N)cc1 [Procaine]
fitness, B. subtilis 168 [1]
Conditions | first compound 0.0125 µg/mL | first compound 0.025 µg/mL | first compound 0.05 µg/mL
partner 85.5 µg/mL | 0.915 | 0.973 | 0.863
partner 171 µg/mL | 0.921 | 0.974 | 0.865
partner 342 µg/mL | 0.898 | 0.884 | 0.87

fitness, B. subtilis 168 [1], one replicate
Conditions | first compound 0.125 µg/mL | first compound 0.25 µg/mL | first compound 0.5 µg/mL
partner 85.5 µg/mL | 0.905 | 0.822 | 0.543
partner 171 µg/mL | 0.856 | 0.821 | 0.562
partner 342 µg/mL | 0.866 | 0.784 | 0.638

Conditions | Bliss interaction score
B. subtilis 168 [2] | 0.0449
S. aureus DSM 20231 | 0.0431
S. aureus Newman | 0.0326
S. pneumoniae D39V | -0.109

CO[C@@H]1[C@@H](OC(N)=O)[C@@H](O)[C@H](Oc2ccc3c(O)c(NC(=O)c4ccc(O)c(CC=C(C)C)c4)c(=O)oc3c2C)OC1(C)C [Novobiocin] + CN1C2=CC=CC=C2N=C3C1=CC=CC3=O [Pyocyanin]
fitness, B. subtilis 168 [1]
Conditions | first compound 0.0125 µg/mL | first compound 0.025 µg/mL | first compound 0.05 µg/mL
partner 1.25 µg/mL | 0.881 | 0.916 | 0.929
partner 2.5 µg/mL | 0.847 | 0.827 | 0.858
partner 5 µg/mL | 0.733 | 0.71 | 0.749

fitness, B. subtilis 168 [1], one replicate
Conditions | first compound 0.125 µg/mL | first compound 0.25 µg/mL | first compound 0.5 µg/mL
partner 1.25 µg/mL | 0.837 | 0.701 | 0.13
partner 2.5 µg/mL | 0.788 | 0.441 | 0.0992
partner 5 µg/mL | 0.454 | 0.229 | 0.164

Conditions | Bliss interaction score
B. subtilis 168 [2] | -0.137
S. aureus DSM 20231 | 0.044
S. aureus Newman | 0.0744
S. pneumoniae D39V | 0.116

CC[C@H](C)[C@H](N)C1=N[C@H](C(=O)N[C@@H](CC(C)C)C(=O)N[C@H](CCC(=O)O)C(=O)N[C@H](C(=O)N[C@H]2CCCCNC(=O)[C@H](CC(N)=O)NC(=O)[C@@H](CC(=O)O)NC(=O)[C@H](Cc3cnc[nH]3)NC(=O)[C@@H](Cc3ccccc3)NC(=O)[C@H]([C@@H](C)CC)NC(=O)[C@@H](CCCN)NC2=O)[C@@H](C)CC)CS1 [Bacitracin] + C1=CC(=CC(=C1)Cl)NN=C(C#N)C#N [CCCP]
main component drawn
Conditions | Bliss interaction score
B. subtilis 168 [2] | 0.0608
S. aureus DSM 20231 | -0.0168
S. aureus Newman | 0.194
S. pneumoniae D39V | 0.0638

CO[C@@H]1[C@@H](OC(N)=O)[C@@H](O)[C@H](Oc2ccc3c(O)c(NC(=O)c4ccc(O)c(CC=C(C)C)c4)c(=O)oc3c2C)OC1(C)C [Novobiocin] + CN[C@H](CC(C)C)C(=O)N[C@H]1C(=O)N[C@@H](CC(N)=O)C(=O)N[C@H]2C(=O)N[C@H]3C(=O)N[C@H](C(=O)N[C@H](C(=O)O)c4cc(O)cc(O)c4-c4cc3ccc4O)[C@H](O)c3ccc(c(Cl)c3)Oc3cc2cc(c3O[C@@H]2O[C@H](CO)[C@@H](O)[C@H](O)[C@H]2O[C@H]2C[C@](C)(N)[C@H](O)[C@H](C)O2)Oc2ccc(cc2Cl)[C@H]1O [Vancomycin]
Conditions | Bliss interaction score
B. subtilis 168 [2] | 0.071
S. aureus DSM 20231 | -0.0386
S. aureus Newman | -0.0447
S. pneumoniae D39V | -0.133

CO[C@@]12[C@H](COC(N)=O)C3=C(C(=O)C(C)=C(N)C3=O)N1C[C@@H]1N[C@@H]12 [MitomycinC] + Oc1cc(Cl)ccc1Oc1ccc(Cl)cc1Cl [Triclosan]
Conditions | Bliss interaction score
B. subtilis 168 [2] | -0.0544
S. aureus DSM 20231 | -0.025
S. aureus Newman | -0.0343
S. pneumoniae D39V | 0.0578

CN[C@@H]1[C@H](O)[C@H](NC)[C@H]2O[C@@]3(O)C(=O)C[C@@H](C)O[C@H]3O[C@@H]2[C@H]1O [Spectinomycin] + Cc1cc(NS(=O)(=O)c2ccc(N)cc2)no1 [Sulfamethoxazol]
Conditions | Bliss interaction score
B. subtilis 168 [2] | -0.0406
S. aureus DSM 20231 | -0.0866
S. aureus Newman | 0.0687
S. pneumoniae D39V | -0.0374

CO[C@@H]1[C@@H](OC(N)=O)[C@@H](O)[C@H](Oc2ccc3c(O)c(NC(=O)c4ccc(O)c(CC=C(C)C)c4)c(=O)oc3c2C)OC1(C)C [Novobiocin] + CCCCCCCCCC(=O)N[C@@H]1[C@H]([C@@H]([C@H](O[C@H]1OC2=C3C=C4C=C2OC5=C(C=C(C=C5)[C@H]([C@H]6C(=O)N[C@@H](C7=C(C(=CC(=C7)O)OC8[C@H]([C@H]([C@@H]([C@H](O8)CO)O)O)O)C9=C(C=CC(=C9)[C@H](C(=O)N6)NC(=O)[C@@H]4NC(=O)[C@@H]1C2=CC(=CC(=C2)OC2=C(C=CC(=C2)[C@H](C(=O)N[C@H](CC2=CC(=C(O3)C=C2)Cl)C(=O)N1)N)O)O)O)C(=O)O)O[C@H]1[C@@H]([C@H]([C@@H]([C@H](O1)CO)O)O)NC(=O)C)Cl)CO)O)O [Teicoplanin]
main component drawn
Conditions | Bliss interaction score
B. subtilis 168 [2] | 0.127
S. aureus DSM 20231 | -0.102
S. aureus Newman | -0.234
S. pneumoniae D39V | 0.0574
